According to patent US20250064888A1, “COMPOSITIONS AND METHODS FOR TREATING CYTOKINE STORM” (SHENZHEN HIGHTIDE BIOPHARMACEUTICAL LTD., priority 2022, published 2025):
Marks after values point to notes of the source that are not given here.

System: LPS-induced mice model
Assay: Survival rate in LPS-induced mice model
Assay type: in vivo, C57BL/6J mice
Details: G6 positive control, 4 mg/kg/day ig; for survival rate: first dose 1 h before LPS
Description: Male SPF C57BL/6J mice (6-8 weeks old with body weight about 18-20 g) used in the study were purchased from Shanghai SLAC Laboratory Animal Co., Ltd. All the care and use of animals followed 3R principles and relevant regulations.
One hundred (100) male C57BL/6J mice (18-20 g) were used for the study. After acclimated for 7 days, the inflammation mice model, which is characterized by a severe acute systemic inflammation response was established by a single tail vein injection of LPS (30 mg/kg).
The model animals were randomly divided into 7 groups: vehicle control group (G0), test group 1 (G1)˜test group 5 (G5) and positive control group (G6), of which there were 15 mice/group in G0˜G5 and 10 mice/group in G6. Day 1 was defined as the day on which tail vein injection of LPS (30 mg/kg), treatment start from the same day of the model establishment (Day 1) through Day 5 for consecutive 5 days (120 h after LPS induction). Except for the first dose on Day1 which were set at 5 min before LPS injection, 5 min after LPS injection, 1 hour before LPS injection and 1 hour after LPS injection respectively (Detailed information see the administration schedule in table 1), each groups have the same time schedules for administration (8 h after LPS injection for the second dose and bid with once in the morning, once in the evening for the following days). Vehicle and API were administered by back subcutaneous injection, DEX was administered by gavage.
Graphpad 8.0 software was used for data analysis. Log-rank (Mantel-Cox) test was used for statistical analysis of the survival rate between each treatment group and vehicle control group.

## C[C@@H]1C[C@H]2[C@@H]3CCC4=CC(=O)C=C[C@]4(C)[C@@]3(F)[C@@H](O)C[C@]2(C)[C@@]1(O)C(=O)CO [DEX, Dexamethasone]
8 h
  survival rate: 100.0%
16 h
  survival rate: 100.0%
24 h
  survival rate: 100.0%
48 h
  survival rate: 90.0%
72 h
  survival rate: 90.0%
120 h
  survival rate: 90.0%**
10 mice/group
  mice died until 72 h after LPS injection: 1 mouse
